Patent US20180186796A1, “COMPOUNDS AND USES THEREOF” (LEAD DISCOVERY SIENA S.R.L., priority 2014, published 2018)
Values after ≈ are worked out from the molar mass of the structure shown. Where a name gives a salt, the structure may show the parent alone. Read-outs that look alike come from different tables or passages of the source.

What was measured:
Recombinant human Src = molecular target: T1, Recombinant human Src (Homo sapiens, UniProt P12931); experiment: Enzymatic assay on isolated Src; assay type: biochemical
T1 construct: purchased Upstate (Lake Placid, N.Y.)
Excerpt: Recombinant human Src was purchased from Upstate (Lake Placid, N.Y.).

Recombinant human Abl = molecular target: T2, Recombinant human Abl (Homo sapiens, UniProt P00519); experiment: Enzymatic assay on isolated Abl; assay type: biochemical; details: mean of at least two experiments
T2 construct: purchased Upstate
Description: Recombinant human Abl was purchased from Upstate.
Activity was measured in a filter binding assay using an Abl specific peptide substrate (Abtide, Upstate).

recombinant Fyn = recombinant Fyn (Homo sapiens, UniProt P06241); experiment: Enzymatic assay on isolated Fyn kinase
Description: Kinase assays were performed in presence of 200 μM ATP and 100 μM peptide substrate. All inhibition assays were conducted with 0.01 μg active kinase, 0.33 μmol [^γ32P]ATP, 60 mM HEPES-NaOH pH 7.5, 3 μM Na-orthovanadate, 1.2 mM DTT, 50 μg/ml PEG20.0000, 10 mM magnesium acetate, 0.004% NP40 and 10% DMSO in a final volume of 10 μL. Fyn and inhibitors were preincubated in ice for 5 min; after addition of the substrates the reaction was conducted at 30° C. for 10 min. The reaction was stopped by adding 5 μL of 3% phosphoric acid. Aliquots (10 μL) were then transferred into a P30 Filtermat (PerkinElmer), washed five times with 75 mM phosphoric acid and once with acetone for 5 minute. The filter was dried and transferred to a sealable plastic bag, and scintillation cocktail (4 mL) was added. Spotted reactions were read in a MicroBeta Liquid (Perkinelmer) scintillation counter. The ID50 values were obtained according to the following equation:
Ki values toward recombinant Fyn were calculated using the equation:
according to a competitive mechanism of inhibition toward ATP substrate, where [SATP] is the concentration of ATP. Curve fitting was performed with the program GraphPad Prism version 5.00.

Water solubility assay = details: for H2O Solubility: Table 6; for solubility at 24 h / solubility thermodynamic at 24 h: water, 20 °C, thermodynamic from solid
Description: Each solid compound (1 mg) was added to 1 mL of water. […] The suspensions were filtered through a 0.45 μm nylon filter (Acrodisc), and the solubilized compound determined by LC-MS-MS assay. For each compound the determination was performed in triplicate. […] The flow rate was 0.2 mL min-^−1 and injection volume was 5 μL. The instrument operated in positive mode and parameters were: detector 1850 V, drying gas pressure 25.0 psi, desolvation temperature 300.0° C., nebulizing gas 40.0 psi, needle 5000 V and shield 600 V. Nitrogen was used as nebulizer gas and drying gas.
Solid compound (1 mg) was added to 1 mL of water. […] The suspensions were filtered through a 0.45-μm nylon filter (Acrodisc), and the solubilised compound determined by LC-UV-MS assay. The determination was performed in triplicate.
Chromatographic analysis was performed with the method above reported and quantification of compounds was made by comparison with apposite calibration curves realized with standard solutions in methanol.

[1] = Microsomal stability assay; details: for Metabolic Stab.: percentage of unmodified parent drug, human liver microsomes 60 min
[2] = PAMPA, intestinal (GI) permeability; details: for Papp / Papp at 5 h, 0.5 mM: PAMPA; for Papp: Table 6; for PAMPA GI (MR %): Membrane Retention; for Papp at 5 h, 0.5 mM: pH 7.4
K562 cells = experiment: Antiproliferative activity on human cell line K562; assay type: cell-based; details: Homo sapiens, K562, read-out: Cellular Data (IC50, μM) K562
Description: In vitro experiments were carried out using the human Chronic Myelogeneous Leukemia cell line K562. Cells were purchased from American Type Culture Collection (ATCC, Manassas, Va., USA) and were cultured in RPMI medium supplemented with 10% Foetal Bovine Serum. […] Cell number and vitality were evaluated using the automatic cell counter NucleoCounteri (Chemometec, Denmark). Results from the NucleoCounter represented either total or non-viable cell concentration, depending on the sample preparation indicated by manufacturer.
In vitro experiments were carried out using the human Chronic Myelogeneous Leukemia cell line K562. Cells were purchased from American Type Culture Collection (ATCC, Manassas, Va., USA) and were cultured in RPMI medium supplemented with 10% Foetal Bovine Serum. […] Cell number and vitality were evaluated using the automatic cell counter NucleoCounter® (Chemometec, Denmark). Results from the NucleoCounter represented either total or non-viable cell concentration, depending on the sample preparation indicated by manufacturer.

[3] = Stability tests in phosphate buffer and methanol; assay type: physicochemical; details: 20° C., 48 h incubation
[4] = Enzymatic stability in human plasma; assay type: in vitro ADME; details: for half-life at 100 μM: human, pooled human plasma diluted with phosphate buffer, pH 7.4
PAMPA, BBB permeability = details: for PAMPA BBB (MR %): Membrane Retention; for Papp at 5 h, 0.5 mM: PAMPA, pH 7.4
[5] = mean of at least two experiments, read-out: Enzymatic Data (Ki, μM) c-Src
[6] = methanol, read-out: Stability MeOH t1/2
[7] = phosphate buffer, pH 7.4, read-out: Stability PBS pH 7.4 t1/2
[8] = 37° C., read-out: Stability Human Plasma t1/2 (converted)
[9] = read-out: t1/2 in human plasma (converted)

T2 sequence (P00519 whole entry): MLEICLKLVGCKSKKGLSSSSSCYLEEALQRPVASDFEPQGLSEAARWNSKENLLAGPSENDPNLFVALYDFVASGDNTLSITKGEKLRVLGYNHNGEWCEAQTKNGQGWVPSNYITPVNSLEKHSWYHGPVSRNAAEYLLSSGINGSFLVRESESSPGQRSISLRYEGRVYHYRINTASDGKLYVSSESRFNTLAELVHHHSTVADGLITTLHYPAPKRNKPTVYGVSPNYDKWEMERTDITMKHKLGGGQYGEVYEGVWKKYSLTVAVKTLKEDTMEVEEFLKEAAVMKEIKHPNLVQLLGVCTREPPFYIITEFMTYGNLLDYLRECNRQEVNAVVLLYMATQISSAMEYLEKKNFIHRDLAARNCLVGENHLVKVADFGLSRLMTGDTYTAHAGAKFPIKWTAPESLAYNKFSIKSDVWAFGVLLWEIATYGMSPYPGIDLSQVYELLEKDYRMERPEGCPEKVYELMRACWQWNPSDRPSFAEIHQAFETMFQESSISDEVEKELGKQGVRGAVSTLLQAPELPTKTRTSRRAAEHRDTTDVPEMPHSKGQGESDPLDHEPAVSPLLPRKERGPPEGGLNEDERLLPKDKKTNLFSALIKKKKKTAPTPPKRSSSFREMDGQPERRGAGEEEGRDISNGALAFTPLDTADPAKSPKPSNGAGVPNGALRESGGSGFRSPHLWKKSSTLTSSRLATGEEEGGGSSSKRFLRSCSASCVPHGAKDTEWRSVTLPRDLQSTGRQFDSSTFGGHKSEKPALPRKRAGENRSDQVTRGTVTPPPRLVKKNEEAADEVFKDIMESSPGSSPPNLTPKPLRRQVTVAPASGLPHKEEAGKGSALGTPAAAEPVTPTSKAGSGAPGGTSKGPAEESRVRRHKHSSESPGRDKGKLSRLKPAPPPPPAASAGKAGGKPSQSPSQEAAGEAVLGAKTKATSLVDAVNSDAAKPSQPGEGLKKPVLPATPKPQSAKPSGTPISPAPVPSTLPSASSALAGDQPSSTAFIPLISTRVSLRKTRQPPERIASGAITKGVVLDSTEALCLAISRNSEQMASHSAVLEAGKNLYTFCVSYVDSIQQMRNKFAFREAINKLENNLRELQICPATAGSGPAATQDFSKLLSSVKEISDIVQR
T1 sequence (P12931 whole entry): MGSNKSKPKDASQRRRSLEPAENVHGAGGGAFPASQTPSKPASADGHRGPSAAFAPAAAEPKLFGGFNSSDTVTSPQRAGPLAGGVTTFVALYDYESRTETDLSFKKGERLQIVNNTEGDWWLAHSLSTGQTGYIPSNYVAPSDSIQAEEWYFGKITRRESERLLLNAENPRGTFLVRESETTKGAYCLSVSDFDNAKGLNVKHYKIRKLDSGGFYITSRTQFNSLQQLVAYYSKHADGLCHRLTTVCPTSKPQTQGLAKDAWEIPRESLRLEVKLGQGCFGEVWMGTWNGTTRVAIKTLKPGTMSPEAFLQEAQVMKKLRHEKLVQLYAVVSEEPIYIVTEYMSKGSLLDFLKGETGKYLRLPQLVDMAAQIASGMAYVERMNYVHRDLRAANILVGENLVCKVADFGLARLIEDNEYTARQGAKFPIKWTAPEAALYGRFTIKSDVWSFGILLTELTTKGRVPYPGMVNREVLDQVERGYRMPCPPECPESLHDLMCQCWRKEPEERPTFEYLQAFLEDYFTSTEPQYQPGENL
Sequence of recombinant Fyn (P06241 whole entry, looked up): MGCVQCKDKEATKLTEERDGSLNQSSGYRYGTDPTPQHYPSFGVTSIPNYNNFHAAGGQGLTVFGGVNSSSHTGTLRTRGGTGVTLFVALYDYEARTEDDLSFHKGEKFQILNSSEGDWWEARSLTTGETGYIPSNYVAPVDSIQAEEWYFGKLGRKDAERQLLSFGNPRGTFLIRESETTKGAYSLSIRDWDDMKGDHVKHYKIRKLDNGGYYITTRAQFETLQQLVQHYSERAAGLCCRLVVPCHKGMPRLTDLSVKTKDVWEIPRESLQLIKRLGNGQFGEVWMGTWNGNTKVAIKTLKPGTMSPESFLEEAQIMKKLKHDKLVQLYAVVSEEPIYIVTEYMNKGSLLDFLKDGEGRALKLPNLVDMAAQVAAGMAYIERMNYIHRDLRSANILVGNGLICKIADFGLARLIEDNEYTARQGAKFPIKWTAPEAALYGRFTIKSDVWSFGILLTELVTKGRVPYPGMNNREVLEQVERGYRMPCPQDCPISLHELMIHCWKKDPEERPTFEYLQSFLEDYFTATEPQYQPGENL

Row | half-life at 500 μM [3, 6] [h] | half-life at 500 μM [3, 7] [h] | solubility at 24 h (Water solubility assay) [µM] | solubility thermodynamic at 24 h (Water solubility assay) [µg/mL] | PAMPA BBB (MR %) (PAMPA, BBB permeability) | Papp at 5 h, 0.5 mM (PAMPA, BBB permeability) [×10⁻⁶ cm/s] | PAMPA GI (MR %) [2] | Papp at 5 h, 0.5 mM [2] [×10⁻⁶ cm/s] | SMILES | Ki (Recombinant human Abl) [µM] | melting point [°C] | also measured
1 | > 48 | > 48 | 35.5 (≈ 18.9 µg/mL) | 18.8 (≈ 35.2 µM) | (45.6) % | 5.01 | (40.1) % | 6.7 | CN1CCN(CCOC(=O)N(Cc2ccccc2)c2ncnc3c2cnn3CC(Cl)c2ccccc2)CC1 (centres unmarked) [proS13, 2-(4-Methylpiperazin-1-yl)ethyl benzyl(1-(2-chloro-2-phenylethyl)-1H-pyrazolo[3,4-d]pyrimidin-4-yl)carbamate] |  |  | half-life at 100 μM [4, 8]: > 48 h; Metabolic Stab. % ([1]; percentage of unmodified drug, Table 8): 86.4%
2 | > 48 | > 48 | 7.08 (≈ 4.25 µg/mL) | 4.22 (≈ 7.03 µM) | (47.0) % | 4.14 | (44.7) % | 4.95 | CSc1nc(N(C(=O)OCCN2CCN(C)CC2)c2cccc(Cl)c2)c2cnn(CC(Cl)c3ccccc3)c2n1 (centres unmarked) [proSi83, 2-(4-Methylpiperazin-1-yl)ethyl (1-(2-chloro-2-phenylethyl)-6-(methylthio)-1H-pyrazolo[3,4-d]pyrimidin-4-yl)(3-chlorophenyl)carbamate] |  |  | half-life at 100 μM [4, 8]: 3.28 h
3 | > 48 | > 48 | 11.2 (≈ 6.35 µg/mL) | 6.32 (≈ 11.2 µM) | (49.7) % | 4.3 | (63.1) % | 4.69 | CSc1nc(N(C(=O)OCCN2CCN(C)CC2)c2cccc(Cl)c2)c2cnn(CCc3ccccc3)c2n1 [proSi214, 2-(4-Methylpiperazin-1-yl)ethyl (3-chlorophenyl)(6-(methylthio)-1-phenethyl-1H-pyrazolo[3,4-d]pyrimidin-4-yl)carbamate] |  |  | half-life at 100 μM [4, 8]: 3.67 h
4 | > 48 | > 48 | 3.09 (≈ 2 µg/mL) | 1.95 (≈ 3.01 µM) | (79.4) % | 1.92 | (78.1) % | 2.38 | CN1CCN(CCOC(=O)N(Cc2ccccc2Cl)c2ncnc3c2cnn3CC(Cl)c2ccc(Br)cc2)CC1 (centres unmarked) [proSi221, 2-(4-Methylpiperazin-1-yl)ethyl (1-(2-(4-bromophenyl)-2-chloroethyl)-1H-pyrazolo[3,4-d]pyrimidin-4-yl)(2-chlorobenzyl)carbamate] |  |  | half-life at 100 μM [4, 8]: > 48 h
5 | > 48 | > 48 | 5.37 (≈ 3.43 µg/mL) | 3.4 (≈ 5.32 µM) | (70.6) % | 2.39 | (73.3) % | 2.15 | CSc1nc(N(C(=O)OC(C)CN2CCN(C)CC2)c2cccc(Br)c2)c2cnn(CC(C)c3ccccc3)c2n1 (centres unmarked) [proSi278 (B), 1-(4-Methylpiperazin-1-yl)propan-2-yl (3-bromophenyl)(6-(methylthio)-1-(2-phenylpropyl)-1H-pyrazolo[3,4-d]pyrimidin-4-yl)carbamate] |  |  | Stability Human Plasma t1/2 ([4]; 37° C.): 10.40 h; half-life at 100 μM [4, 9]: 10.4 h
6 | > 48 | > 48 | 3.02 (≈ 1.97 µg/mL) | 1.96 (≈ 3 µM) | (91.4) % | 0.93 | (88.1) % | 1.45 | CCC(CN1CCN(C)CC1)OC(=O)N(c1cccc(Br)c1)c1nc(SC)nc2c1cnn2CC(C)c1ccccc1 (centres unmarked) [proSi278 (C), 1-(4-Methylpiperazin-1-yl)butan-2-yl (3-bromophenyl)(6-(methylthio)-1-(2-phenylpropyl)-1H-pyrazolo[3,4-d]pyrimidin-4-yl)carbamate] |  |  | Stability Human Plasma t1/2 ([4]; 37° C.): 11.31 h; half-life at 100 μM [4, 9]: 11.3 h

The remaining lines, values behind:

Row | SMILES | half-life at 500 μM [3, 6] [h] | half-life at 500 μM [3, 7] [h] | solubility at 24 h (Water solubility assay) [µM] | solubility thermodynamic at 24 h (Water solubility assay) [µg/mL] | PAMPA BBB (MR %) (PAMPA, BBB permeability) | Papp at 5 h, 0.5 mM (PAMPA, BBB permeability) [×10⁻⁶ cm/s] | PAMPA GI (MR %) [2] | Papp at 5 h, 0.5 mM [2] [×10⁻⁶ cm/s] | Ki (Recombinant human Abl) [µM] | melting point [°C] | also measured
7 | Clc1cccc(Nc2nc(SC3CCCC3)nc3c2cnn3CC(Cl)c2ccccc2)c1 (centres unmarked) |  |  |  |  |  |  |  |  | > 100 |  | Ki (Recombinant human Src): > 100 µM; Ki (recombinant Fyn): > 100 µM
8 | Nc1ncnc2c1c(-c1ccccc1)nn2CC(Cl)c1ccccc1 (centres unmarked) (as salt: hydrochloride) [Si244, 1-(2-Chloro-2-phenylethyl)-3-phenyl-1H-pyrazolo[3,4-d]pyrimidin-4-amine hydrochloride] |  |  |  |  |  |  |  |  |  | 129 to 132 | 
9 | CCC(C)Sc1nc(NCc2ccccc2)c2cnn(CC(Cl)c3ccccc3)c2n1 (centres unmarked) [Si146, N-benzyl-6-(sec-butylthio)-1-(2-chloro-2-phenylethyl)-1H-pyrazolo[3,4-d]pyrimidin-4-amine] |  |  |  |  |  |  |  |  |  | 112 to 113 | 
10 | CCC(C)Sc1nc(NCCc2ccccc2)c2cnn(CC(Cl)c3ccccc3)c2n1 (centres unmarked) [Si147, 6-(Sec-butylthio)-1-(2-chloro-2-phenylethyl)-N-(2-phenylethyl)-1H-pyrazolo[3,4-d]pyrimidin-4-amine] |  |  |  |  |  |  |  |  |  | 97 to 98 | 
11 | Clc1cccc(Nc2nc(SCCN3CCOCC3)nc3c2cnn3CC(Cl)c2ccccc2)c1 (centres unmarked) [Si181, 1-(2-chloro-2-phenylethyl)-N-(3-chlorophenyl)-6-((2-morpholinoethyl)thio)-1H-pyrazolo[3,4-d]pyrimidin-4-amine, reference compound] |  |  |  |  |  |  |  |  | 0.12 |  | Ki (Recombinant human Src; [5]): 0.19 µM; H2O Solubility (Water solubility assay): 0.1 µg/mL; Metabolic Stab. [1]: 95%; Papp [2]: 9.5 10^−6 cm/sec
12 | Nc1ncnc2c1c(-c1ccc(F)cc1)nn2CC(Cl)c1ccccc1 (centres unmarked) [Si310, 1-(2-Chloro-2-phenylethyl)-3-(4-fluorophenyl)-1H-pyrazolo[3,4-d]pyrimidin-4-amine] |  |  |  |  |  |  |  |  |  | 203 to 206 | IC50 (K562 cells): 12.6 ± 14.8 µM; Ki (recombinant Fyn; read-out: Enzymatic Data (Ki, μM) Fyn): 0.36 µM
13 | CC(Cn1nc(-c2ccccc2)c2c(N)ncnc21)c1ccccc1 (centres unmarked) [Si312, 3-Phenyl-1-(2-phenylpropyl)-1H-pyrazolo[3,4-d]pyrimidin-4-amine] |  |  |  |  |  |  |  |  |  | 105 to 109 | decreased Fyn activity on substitution of chlorine by methyl in N1 side chain (recombinant Fyn): about 10 fold
14 | CSc1nc(Nc2cccc(O)c2)c2cnn(CC(Cl)c3ccccc3)c2n1 (centres unmarked) [Si322] |  |  |  |  |  |  |  |  | 0.15 |  | Ki (Recombinant human Src; read-out: Ki c-Src): 0.03 µM; H2O Solubility (Water solubility assay): 4.3 µg/mL; Metabolic Stab. [1]: 98%; Papp [2]: 5.92 10^−6 cm/sec
15 | CC(C)Sc1nc(Nc2cccc(O)c2)c2cnn(CC(Cl)c3ccccc3)c2n1 (centres unmarked) [Si323] |  |  |  |  |  |  |  |  | 0.12 |  | Ki (Recombinant human Src; read-out: Ki c-Src): 0.01 µM; H2O Solubility (Water solubility assay): 0.9 µg/mL; Metabolic Stab. [1]: 95%; Papp [2]: 4.53 10^−6 cm/sec
16 | Fc1ccc(CCn2ncc3c(Nc4cccc(Cl)c4)nc(SCCN4CCOCC4)nc32)cc1 [Si327, N-(3-Chlorophenyl)-1-[2-(4-fluorophenyl)ethyl]-6-[(2-morpholin-1-ylethyl)thio]-1H-pyrazolo[3,4-d]pyrimidin-4-amine] |  |  |  |  |  |  |  |  |  | 127 to 128 | Ki (Recombinant human Src; read-out: Ki c-Src): ~0.1 µM
17 | Oc1cccc(Nc2nc(SC3CCCC3)nc3c2cnn3CC(Cl)c2ccccc2)c1 (centres unmarked) [Si330] |  |  |  |  |  |  |  |  | 0.15 |  | Ki (Recombinant human Src; read-out: Ki c-Src): 0.007 µM; H2O Solubility (Water solubility assay): 0.6 µg/mL; Metabolic Stab. [1]: 91%; Papp [2]: 3.91 10^−6 cm/sec
18 | CC(=O)c1ccc(-c2nn(CC(C)c3ccccc3)c3ncnc(N)c23)cc1 (centres unmarked) [Si336, 1-{4-[4-Amino-1-(2-phenylpropyl)-1H-pyrazolo[3,4-d]pyrimidin-3-yl]phenyl}ethanone] |  |  |  |  |  |  |  |  |  | 232 to 235 | 
19 | Cc1ccc(-c2nn(CC(C)c3ccccc3)c3ncnc(N)c23)cc1 (centres unmarked) [Si338, 3-(4-Methylphenyl)-1-(2-phenylpropyl)-1H-pyrazolo[3,4-d]pyrimidin-4-amine] |  |  |  |  |  |  |  |  |  | 152 to 155 | decreased Fyn activity on substitution of chlorine by methyl in N1 side chain (recombinant Fyn; Si312 vs Si244, Si337 vs Si308, Si338 vs Si309): about 10 fold; Ki (recombinant Fyn; read-out: Ki Fyn): 0.995 µM
20 | Fc1cccc(Nc2nc(SC3CCCC3)nc3c2cnn3CC(Cl)c2ccccc2)c1 (centres unmarked) [drawing 179] |  |  |  |  |  |  |  |  | > 100 |  | Ki (Recombinant human Src; [5]): 0.11 µM; Metabolic Stab. [1]: 95%; Papp [2]: 14 10^−6 cm/sec
